Test results reported in patent publication US20260165323A1, “USE OF STROBILURIN TYPE COMPOUNDS FOR COMBATING PHYTOPATHOGENIC FUNGI CONTAINING AN AMINO ACID SUBSTITUTION F129L IN THE MITOCHONDRIAL CYTOCHROME B PROTEIN CONFERRING RESISTANCE TO QO […]” (priority 2022, published 2026).

Experiments:
Type in all cases: in vivo
[1] = test system: Phakopsora pachyrhizi containing the amino acid substitution F129L in the mitochondrial cytochrome b protein; assay: Use Example 1: protective control of soybean rust on soybeans (PHAKPA P2); conditions: inoculated 2 days after spraying, % diseased leaf area
Description: (§1) The compound was dissolved in a mixture of acetone and/or dimethylsulfoxide and the wetting agent/emulsifier Wettol, which is based on ethoxylated alkylphenoles, in a ratio (volume) solvent-emulsifier of 99 to 1 to give a total volume of 5 ml. Subsequently, water was added to total volume of 100 ml. This stock solution was then diluted with the described solvent-emulsifier-water mixture to the final concentration given in the tables below.
Use Example 1. Protective Control of Soybean Rust on Soybeans Caused by Phakopsora pachyrhizi (PHAKPA P2)
(§2) Leaves of potted soybean seedlings were sprayed to run-off with the previously described spray solution, containing the concentration of active ingredient or their mixture as described below. The plants were allowed to air-dry. The trial plants were cultivated for 2 days in a greenhouse chamber at 23-27° C. and a relative humidity between 60 and 80%. Then the plants were inoculated with spores of Phakopsora pachyrhizi. The strain used contains the amino acid substitution F129L in the mitochondrial cytochrome b protein conferring resistance to Qo inhibitors. To ensure the success the artificial inoculation, the plants were transferred to a humid chamber with a relative humidity of about 95% and 20 to 24° C. for 24 hr. The trial plants were cultivated for up to 14 days in a greenhouse chamber at 23 to 27° C. and a relative humidity between 60 and 80%. The extent of fungal attack on the leaves was visually assessed as % diseased leaf area, the disease level of untreated controls was usually higher than 85%.

[2] = test system: Phakopsora pachyrhizi containing the amino acid substitution F129L in the mitochondrial cytochrome b protein; assay: Use Example 2: protective control of soybean rust on soybeans (PHAKPA P6); conditions: inoculated six days after spraying, % diseased leaf area
Description: as §1
Use Example 2. Protective Control of Soybean Rust on Soybeans Caused by Phakopsora Pachyrhizi (PHAKPA P6)
as §2, with “active ingredient as described” for “active ingredient or their mixture as described”, “cultivated for six days in” for “cultivated for 2 days in”, “95% and 23 to 27°” for “95% and 20 to 24°”, “23 to 27° C. for” for “20 to 24° C. for”

Puccinia recondita [3] = assay: Use Example 3: curative control of brown rust on wheat (PUCCRT K4); conditions: % diseased leaf area
Description: as §1
Use Example 3. Curative Control of Brown Rust on Wheat Caused by Puccinia recondita (PUCCRT K4)
The first two developed leaves of potted wheat seedling were dusted with spores of Puccinia recondita. To ensure the success the artificial inoculation, the plants were transferred to a humid chamber without light and a relative humidity of 95 to 99% and 20 to 24° C. for 24 h. The next 3 days the plants were cultivated in a greenhouse chamber at 20 to 24° C. and a relative humidity between 65 and 70%. Then the plants were sprayed to run-off with previously described spray solution, containing the concentration of active ingredient or their mixture as described below. The plants were allowed to air-dry. Then the trial plants were cultivated for 5 to 7 days in a greenhouse chamber at 20 to 24° C. and a relative humidity between 65 and 70%. The extent of fungal attack on the leaves was visually assessed as % diseased leaf area, the disease level of untreated controls was usually between 80 and 100%.

Puccinia recondita [4] = assay: Use Example 4: preventative control of brown rust on wheat (PUCCRT P7); conditions: inoculated seven days after spraying, % diseased leaf area
Description: as §1
Use Example 4. Preventative Control of Brown Rust on Wheat Caused by Puccinia recondita (PUCCRT P7)
The first two developed leaves of potted wheat seedling were sprayed to run-off with previously described spray solution, containing the concentration of active ingredient or their mixture as described below. Seven days later the plants were dusted with spores of Puccinia recondita. To ensure the success of the artificial inoculation, the plants were transferred to a humid chamber without light and a relative humidity of 95 to 99% and 20 to 24° C. for 24 h. Then the trial plants were cultivated for 9 to 11 days in a greenhouse chamber at 20 to 24° C. and a relative humidity between 65 and 70%. The extent of fungal attack on the leaves was visually assessed as % diseased leaf area, the disease level of untreated controls was usually between 80 and 100%.

SMILES | % PHAKPA (F129L) Disease level P2 at 4 ppm [1] [%] | % PHAKPA (F129L) Disease level P2 at 16 ppm [1] [%] | % PHAKPA (F129L) Disease level P6 at 4 ppm [2] [%] | % PHAKPA (F129L) Disease level P6 at 16 ppm [2] [%] | % PUCCRT Disease level K4 at 4 ppm (Puccinia recondita [3]) [%] | % PUCCRT Disease level K4 at 16 ppm (Puccinia recondita [3]) [%] | % PUCCRT Disease level P7 at 4 ppm (Puccinia recondita [4]) [%] | % PUCCRT Disease level P7 at 16 ppm (Puccinia recondita [4]) [%]
CNC(=O)/C(=N/OC)c1cccc(Cl)c1CO/N=C(\COC)c1ccc(F)cc1 [compound 2, (2E)-2-[3-chloro-2-[[(Z)-[1-(4-fluorophenyl)-2-methoxyethylidene]amino]oxymethyl]phenyl]-2-methoxyimino-N-methyl-acetamide] | 16 | 0 | 0 | 1 | 63 | 4 | 15 | 5
CNC(=O)/C(=N/OC)c1cccc(Cl)c1CO/N=C(/C#Cc1ccc(F)cc1)COC [compound 6, (2E)-2-[3-chloro-2-[[(Z)-[3-(4-fluorophenyl)-1-(methoxymethyl)prop-2-ynylidene]amino]oxymethyl]phenyl]-2-methoxyimino-N-methyl-acetamide] | 8 | 0 | 28 | 5 | 38 | 2 | 8 | 0
CO/C=C(/C(=O)OC)c1cccc(Cl)c1CO/N=C(/C#Cc1ccc(F)cc1)COC [compound 7, Methyl (E)-2-[3-chloro-2-[[(Z)-[3-(4-fluorophenyl)-1-(methoxymethyl)prop-2-ynylidene]amino]oxymethyl]phenyl]-3-methoxy-prop-2-enoate] | 2 | 0 | 11 | 0 | 70 | 50 | 35 | 4
CO/C=C(/C(=O)OC)c1cccc(Br)c1CO/N=C(/C#Cc1ccc(F)cc1)COC [compound 8, Methyl-(E)-2-[3-bromo-2-[[(Z)-[3-(4-fluorophenyl)-1-(methoxymethyl)prop-2-ynylidene]amino]oxymethyl]phenyl]-3-methoxy-prop-2-enoate] | 2 | 0 | 12 | 0 | 6 | 0 | 0 | 0
CO/C=C(/C(=O)OC)c1cccc(Cl)c1CO/N=C(\COC)c1ccccc1 [compound 11, Methyl-(E)-2-[3-chloro-2-[[(Z)-(2-methoxy-1-phenyl-ethylidene)amino]oxymethyl]phenyl]-3-methoxy-prop-2-enoate] | 2 | 0 | 11 | 0 | 7 | 0 | 25 | 1
CCOC/C(=N\OCc1c(Cl)cccc1/C(=N\OC)C(=O)OC)c1ccc(F)cc1 [compound 24] | – | – | – | – | 83 | 82 | 68 | 48
CCOC/C(=N\OCc1c(Cl)cccc1/C(=N\OC)C(=O)OC)c1cccc(F)c1 [compound 26] | – | – | – | – | 82 | 82 | 62 | 21
CCOC/C(=N\OCc1c(Cl)cccc1/C(=N\OC)C(=O)NC)c1ccccc1Cl [compound 51] | – | – | – | – | 72 | 68 | 75 | 53
COC/C(=N\OCc1c(Cl)cccc1/C(=N\OC)C(=O)OC)c1c(F)ccc(F)c1F [compound 111] | 39 | 5 | 42 | 15 | – | – | 30 | 17
CNC(=O)/C(=N/OC)c1cccc(Cl)c1CO/N=C(\COC)c1c(F)ccc(F)c1F [compound 112] | 8 | 0 | 21 | 0 | – | – | 43 | 6
CO/C=C(/C(=O)OC)c1cccc(Cl)c1CO/N=C(\COC)c1c(F)cc(Cl)cc1F [compound 115] | 8 | 0 | 9 | 1 | – | – | 57 | 14
COC/C(=N\OCc1c(Cl)cccc1/C(=N\OC)C(=O)OC)c1cccc(OC)c1 [compound 120] | 67 | 11 | 81 | 45 | – | – | 22 | 2
CNC(=O)/C(=N/OC)c1cccc(Cl)c1CO/N=C(\COC)c1ccccc1C [compound 122] | 82 | 20 | 76 | 30 | – | – | 45 | 20
CO/C=C(/C(=O)OC)c1cccc(F)c1CO/N=C(\COC)c1c(F)cc(F)cc1F [compound 125] | – | – | – | – | 68 | 7 | – | –
CNC(=O)/C(=N/OC)c1cccc(Cl)c1CO/N=C(\COC)c1cccc(C)c1 [compound 127] | 21 | 0 | 18 | 4 | 58 | 1 | – | –
CO/C=C(/C(=O)OC)c1cccc(Cl)c1CO/N=C(\COC)c1cccc(C)c1 [compound 128] | 4 | 0 | 4 | 1 | 20 | 1 | – | –
